Reference: ChEMBL document CHEMBL1144863, “Novel histone deacetylase inhibitors: design, synthesis, enzyme inhibition, and binding mode study of SAHA-based non-hydroxamates” (Bioorg Med Chem Lett, 2003)

Experiments:
[1] = molecular target: Histone deacetylase; experiment: In vitro inhibitory activity against histone deacetylase (HDAC) isolated from HeLa nuclear extract; format: protein assay, Homo sapiens
[2] = molecular target: Histone deacetylase (Homo sapiens) (UniProt Q13547+O15379+Q9UBN7+Q92769+Q9UQL6+Q8WUI4+Q9BY41+Q96DB2+P56524+Q9UKV0+Q969S8); settings: at 100 µM
Description: In vitro inhibitory activity against histone deacetylase (HDAC) isolated from HeLa nuclear extract at a concentration of 100 uM

IC50 [1] [µM]	inhibition [2] [%]	SMILES
> 100	7	NC(=O)NCCCCCCC(=O)Nc1ccccc1
121	47	O=C(CBr)NCCCCC(=O)Nc1ccccc1
> 100	4	O=C(CCCCCCC(=O)Nc1ccccc1)NCCO
> 100	8	O=C(CCCCCCC(=O)Nc1ccccn1)Nc1ccccc1
> 100	16	C#CCNCCCCCCC(=O)Nc1ccccc1
> 100	3	O=C(CCCCCCNC(=O)C(F)(F)F)Nc1ccccc1
17	78	O=C(CBr)NCCCCCC(=O)Nc1ccccc1
> 100	12	COC(=O)NCCCCCCC(=O)Nc1ccccc1
> 100	5	O=C(CCCCCCC(=O)OCCO)Nc1ccccc1
> 100	19	CCOC(=O)NCCCCCCC(=O)Nc1ccccc1
650	18	NNC(=O)NCCCCCCC(=O)Nc1ccccc1
> 100	15	O=C(CCCCCCC(=O)c1ccccn1)Nc1ccccc1
> 100	4	O=C(CCCCCCNC(=O)C(Cl)(Cl)Cl)Nc1ccccc1
> 100	9	O=C(CCCCCCC(=O)Nc1nccs1)Nc1ccccc1
150	35	NNC(=O)NCCCCCC(=O)Nc1ccccc1
> 1000	12	NNC(=O)NCCCCC(=O)Nc1ccccc1
> 100	0	O=C(CCCCCC/C(=N/O)c1ccccn1)Nc1ccccc1
> 100	8	C#CCN(CC#C)CCCCCCC(=O)Nc1ccccc1
300	40	O=C(CBr)NCCCCCCCC(=O)Nc1ccccc1
14	79	O=C(CBr)NCCCCCCC(=O)Nc1ccccc1
> 100	3	NCCNC(=O)CCCCCCC(=O)Nc1ccccc1

SMILES	IC50 [1] [µM]	inhibition [2] [%]
Nc1ccccc1NC(=O)CCCCCCC(=O)Nc1ccccc1	120	48
